The results in this text go back to ChEMBL document CHEMBL4842345, “Design, synthesis and biological evaluation of tanshinone IIA-based analogues: Potent inhibitors of microtubule formation and angiogenesis” (Eur J Med Chem, 2021).

One series concerns HepG2. Put plainly: Antiproliferative activity against human HepG2 cells assessed as reduction in cell viability measured after 72 hrs by MTT assay. Format: functional, cell-based. Particulars: HepG2, 72 h.
Another series relates to U-937. Put plainly: Antiproliferative activity against human U-937 cells assessed as reduction in cell viability measured after 72 hrs by MTT assay. Format: functional, cell-based. Particulars: U-937, 72 h.
The next series has as its system MGC-803. Put plainly: Antiproliferative activity against human MGC-803 cells assessed as reduction in cell viability measured after 72 hrs by MTT assay. Format: functional, cell-based. To be noted: MGC-803, 72 h.
Another series concerns HeLa. Kind of series: Antiproliferative activity against human HeLa cells assessed as reduction in cell viability measured after 72 hrs by MTT assay. Format: functional, cell-based.
Series [1] can be described thus: Metabolic stability in human liver microsomes assessed as degradation half life. Format: ADME, Microsome. Particulars: liver microsomes.
A further series concerns MCF7. Put plainly: Antiproliferative activity against human MCF7 cells assessed as reduction in cell viability measured after 72 hrs by MTT assay. Format: functional, cell-based. To be noted: MCF7, 72 h.
Series [2] can be described thus: Kinetic solubility of the compound at pH 6.5 by nephelometry. Format: physicochemical. Particulars: buffer, read-out: Kinetic_solubility.
Series [3] is described as follows: Kinetic solubility of the compound at pH 2 by nephelometry. Particulars: buffer, read-out: Kinetic_solubility. Format: physicochemical.
The nature of series [4]: Intrinsic clearance in human liver microsome. Format: ADME, microsomes. Particulars: liver microsomes, read-out: CLH.
A further series deals with A549. Put plainly: Antiproliferative activity against human A549 cells assessed as reduction in cell viability measured after 72 hrs by MTT assay. Format: functional, cell-based. Particulars: A549, 72 h.

The structures appear in SMILES notation.

As for `Cc1coc2c1C(=O)C(=O)c1c-2ccc2c1CCCC2(C)C` [TANSHINONE IIA], the 50% inhibitory concentration (IC50) is 4910 nM with HepG2; > 5000 nM in the series on U-937; > 5000 nM in the series with MGC-803; 3470 nM in the series on HeLa; > 5000 nM with MCF7; 2200 nM in the series with A549. In [1], the half-life came out at 10 min. Also, the solubility kinetic in series [2] and in series [3] was < 5 µg/mL in each case. Moreover, the microsomal CLint in series [4] was determined as 45 µL/min/mg.
Regarding `Cc1coc2c1C(=O)C(=O)c1cccc(O)c1-2`, the 50% inhibitory concentration (IC50) in the series on HepG2, in the series on U-937, with MGC-803, in the series with HeLa, with MCF7 and in the series with A549 was > 5000 nM in each case.
`Cc1cc2c(o1)-c1ccc(O)cc1C(=O)C2=O`: the concentration for half-maximal inhibition (IC50) in the series on HepG2 is 4010 nM; in the series with U-937, 3540 nM; in the series on MGC-803, 2920 nM; in the series with HeLa, 2280 nM; in the series on MCF7, > 5000 nM; in the series with A549 it was 1780 nM.
Consider `Cc1cc2c(o1)-c1ccc3c(c1C(=O)C2=O)CCCC3(C)C`, for which the concentration for half-maximal inhibition (IC50) in the series on HepG2 was 1220 nM; in the series with U-937 it was 2690 nM; in the series with MGC-803, 2800 nM; in the series on HeLa, 1170 nM; in the series with MCF7 it was > 5000 nM; in the series on A549 it was 200 nM.
As for `Cc1cc2c(o1)-c1c(O)cccc1C(=O)C2=O`, the IC50 with HepG2, in the series with U-937, in the series with MGC-803, with HeLa, in the series on MCF7 and in the series with A549 was > 5000 nM each time.
Turning to `COc1ccc2c(c1)C(=O)C(=O)c1cc(C)oc1-2`, the half-maximal inhibitory concentration (IC50) in the series with HepG2 is 3480 nM; with U-937, 3400 nM; in the series with MGC-803, > 5000 nM; in the series with HeLa it was 1380 nM; with MCF7, > 5000 nM; in the series on A549, 750 nM.
With `Cc1coc2c1C(=O)C(=O)c1cc(O)ccc1-2`, the IC50 with HepG2, in the series on U-937, with MGC-803, in the series on HeLa, in the series with MCF7 and in the series with A549 was > 5000 nM each time.
As for `Cc1cc2c(o1)-c1ccccc1C(=O)C2=O`, the IC50 stood at 2770 nM with HepG2; 1580 nM in the series with U-937; 3540 nM in the series with MGC-803; 1510 nM in the series with HeLa; 1290 nM in the series on MCF7; 2990 nM in the series on A549.
For the molecule `COc1cccc2c1-c1occ(C)c1C(=O)C2=O`, the concentration for half-maximal inhibition (IC50) with HepG2 is 3780 nM; in the series with U-937, > 5000 nM; with MGC-803 it was 3910 nM; with HeLa it was 2330 nM; in the series on MCF7, > 5000 nM; in the series with A549, 430 nM.
On to `Cc1cc2c(o1)-c1ccc(C(C)C)cc1C(=O)C2=O`, for which the IC50 in the series on HepG2 turned out to be 2410 nM; in the series on U-937, 1660 nM; with MGC-803 it was 1970 nM; in the series on HeLa, 2160 nM; with MCF7, 2420 nM; in the series on A549 it was 2510 nM.
In the case of `COc1cccc2c1-c1oc(C)cc1C(=O)C2=O`, the IC50 in the series on HepG2 was 4750 nM; in the series on U-937, 3260 nM; in the series with MGC-803, > 5000 nM; in the series on HeLa, 2100 nM; in the series with MCF7, > 5000 nM; in the series on A549 it was 2740 nM.
As for `Cc1coc2c1C(=O)C(=O)c1cc(C(C)C)ccc1-2`, the IC50 was 3270 nM in the series on HepG2; 2200 nM with U-937; > 5000 nM with MGC-803; 4220 nM with HeLa; 3570 nM in the series with MCF7; 1500 nM in the series on A549.
As for `Cc1coc2c1C(=O)C(=O)c1ccccc1-2`, the half-inhibitory concentration (IC50) turned out to be 2060 nM with HepG2; 1190 nM in the series on U-937; 1920 nM in the series on MGC-803; 950 nM in the series with HeLa; 1580 nM in the series with MCF7; 850 nM with A549.
On to `Cc1coc2c1C(=O)C(=O)c1cc(Cl)ccc1-2`, for which the IC50 with HepG2 was determined as 1290 nM; with U-937 it was 2530 nM; in the series on MGC-803, 2280 nM; with HeLa, 1550 nM; in the series with MCF7 it was 4450 nM; in the series with A549 it was 1780 nM.
Consider `COc1ccc2c(c1)C(=O)C(=O)c1c(C)coc1-2`, for which the IC50 in the series on HepG2 is > 5000 nM; in the series with U-937, 3670 nM; in the series with MGC-803, 3950 nM; with HeLa, 2820 nM; in the series with MCF7 it was > 5000 nM; in the series with A549, 940 nM.
